Assay results as given in patent publication US20080213219A1, “Methods for treatment and management of macular degeneration using 3-(4-amino-1-oxo-1,3-dihydro-isoindol-2-yl)-piperidine-2,6-dione” (Celgene Corporation, priority 2002, published 2008).

Columns and labels:
[1] = tested on: TNF-α production; experiment: Inhibition of TNF-α production following LPS-stimulation of human PBMC; type: cell-based; settings: LPS-stimulated PBMC, read-out: IC50 for inhibiting production of TNF-α
Description: (§1) In a specific embodiment, inhibitions of TNF-α production following LPS-stimulation of human PBMC and human whole blood by 3-(4-amino-1-oxo-1,3-dihydro-isoindol-2-yl)-piperidine-2,6-dione, 4-(amino)-2-(2,6-dioxo-(3-piperidyl))-isoindoline-1,3-dione or thalidomide were investigated in vitro.

[2] = tested on: TNF-α production; experiment: Inhibition of TNF-α production following LPS-stimulation of human whole blood; type: cell-based; settings: LPS-stimulated human whole blood; read-out: IC50 for inhibiting production of TNF-α
Description: as §1

[3] = tested on: TNF-α, IL1β, IL6, IL10 production; experiment: LPS-stimulated cytokine production by PBMC; type: cell-based
[4] = tested on: macular degeneration; experiment: Clinical study in patients with macular degeneration, adjuvant to photodynamic therapy with verteporfin; type: in vivo; settings: about 10 mg/day for 20 weeks as adjuvant to verteporfin photodynamic therapy
Protocol: Immunomodulatory compounds are administered in an amount of about 0.1 to about 25 mg per day to patients with macular degeneration. In a specific embodiment, clinical studies are performed with forty patients with macular degeneration, who are divided into two groups. The first group receives conventional treatment for closing the leaking choroidal vessels (characteristic of this disease) by photodynamic therapy with verteporfin. Opthalmol 1999 (117): 1329-1345. The second group receives the same conventional therapy with verteporfin and 3-(4-amino-1-oxo-1,3-dihydro-isoindol-2-yl)-piperidine-2,6-dione in an amount of about 10 mg/day as an adjuvant for 20 weeks.
However, the first group without 3-(4-amino-1-oxo-1,3-dihydro-isoindol-2-yl)-piperidine-2,6-dione experiences progressive reperfusion of the ablated vessels several weeks after treatment. Progressive visual loss follows which requires the photodynamic therapy to be repeated.

[5] = tested on: laser-induced CNVM; settings: intravitreal injection, monkeys; cited from earlier work
[6] = tested on: MD; settings: intravitreal injection, one-year period, patients with MD; cited from earlier work
[7] = tested on: MD; settings: cited from earlier work

| Molecule | IC50 [1] [µM] | IC50 [2] [µM] | LPS-stimulated production of IL1β [3] | LPS-stimulated production of IL6 [3] | LPS-stimulated production of TNF-α [3] | production of the anti-inflammatory cytokine IL10 [3] | neovascular cascade / duration of the effects of photodynamic therapy [4] | growth of laser-induced CNVM [5] | prevention of severe visual loss [6] | efficacy at treating MD ([7]; clinical trial) | rate of adverse effects ([7]; in vivo) |
| --- | --- | --- | --- | --- | --- | --- | --- | --- | --- | --- | --- |
| Nc1cccc2c1CN(C1CCC(=O)NC1=O)C2=O (centres unmarked) [3-(4-Amino-1-oxo-1,3-dihydro-isoindol-2-yl)-piperidine-2,6-dione] | ~0.1 | ~0.48 | dose-dependent inhibition | dose-dependent inhibition | dose-dependent inhibition | increased production | sufficiently hindered | – | – | – | – |
| Nc1cccc2c1C(=O)N(C1CCC(=O)NC1=O)C2=O (centres unmarked) [4-(Amino)-2-(2,6-dioxo(3-piperidyl))-isoindoline-1,3-dione] | ~0.024 | ~0.025 | dose-dependent inhibition | dose-dependent inhibition | dose-dependent inhibition | increased production | – | – | – | – | – |
| C[C@]12C=CC(=O)C=C1CC[C@H]1[C@@H]3C[C@@H](O)[C@](O)(C(=O)CO)[C@@]3(C)C[C@H](O)[C@@]12F [triamcinolone] | – | – | – | – | – | – | – | inhibits | fails to prevent | – | – |
| interferon-α | – | – | – | – | – | – | – | – | – | ineffective | high rate of adverse effects |
